Counter-ions that a name gives are not always drawn.
Tested on: Pseudomonas aeruginosa PAM1001
Assay: microbe, parasite or virus in culture
Assay type: cell-based
Settings: for inhibition at 2.5 µg/mL / inhibition at 5 µg/mL / inhibition at 10 µg/mL / inhibition at 20 µg/mL / inhibition at 40 µg/mL: Pseudomonas aeruginosa, PAM1001, read-out: Inhibition (%) of growth of P. aeruginosa PAM1001; for Inhibition (%) of growth of P. aeruginosa PAM1001: Levofloxacin 0.25 μg/mL
Experimental: For compounds labeled with the prefix ‘D’, potentiation is measured by inhibition of growth of Pseudomonas aeruginosa PAM1001 at varying concentrations of efflux pump inhibitors (EPIs) in the presence of levofloxacin (0.25 microg/mL). Bacteria are grown in Mueller Hinton Broth (MHB, Difco) with an initial inoculum of 1×10^6 CFU/mL. Kinetics of bacterial growth is monitored, during 18 h of incubation at 37° C., by measurement of the culture absorbance at 650 nm using a 96-well plate spectrophotometer (SpectraMax, Molecular Devices). The inhibitory effect of EPIs is expressed as a percentage of growth inhibition compared to a control bacterial culture grown in the presence of 0.25 microg/mL levofloxacin but without EPIs.

[1] = Concentration of Compound 2.5 μg/mL
[2] = Concentration of Compound 5 μg/mL
[3] = Concentration of Compound 10 μg/mL
[4] = Concentration of Compound 20 μg/mL
[5] = Concentration of Compound 40 μg/mL

Structure (SMILES)	inhibition at 2.5 µg/mL [%]	inhibition at 5 µg/mL [%]	inhibition at 10 µg/mL [%]	inhibition at 20 µg/mL [%]	inhibition at 40 µg/mL [%]	Inhibition (%) of growth of P. aeruginosa PAM1001 [1] [%]	Inhibition (%) of growth of P. aeruginosa PAM1001 [2] [%]	Inhibition (%) of growth of P. aeruginosa PAM1001 [3] [%]	Inhibition (%) of growth of P. aeruginosa PAM1001 [4] [%]	Inhibition (%) of growth of P. aeruginosa PAM1001 [5] [%]
NCC(=O)N[C@@H]1CN[C@H](C(=O)N2C[C@H](NC(=O)[C@H](O)CCc3ccccc3)C[C@H]2C(=O)Nc2cnc3ccccc3c2)C1 (mixture of isomers) [Compound D104, cis-4-Glycylamino-L-Prolyl-trans-4-((R)-2-Hydroxy-4-Phenylbutyrylamino)-L-Proline 3-Quinolylamide Trihydrochloride]	18	19	14	62	100	–	–	–	–	–
NCC(=O)N[C@@H]1CN[C@@H](C(=O)N2C[C@H](NC(=O)[C@H](O)CCc3ccccc3)C[C@H]2C(=O)Nc2cnc3ccccc3c2)C1 (mixture of isomers) [Compound D105, trans-4-Glycylamino-D-Prolyl-trans-4-((R)-2-Hydroxy-4-Phenylbutyrylamino)-L-proline 3-Quinolylamide Trihydrochloride]	19	18	50	99	101	–	–	–	–	–
NC[C@H]1CN[C@H](C(=O)N2C[C@H](NC(=O)[C@H](O)CCc3ccccc3)C[C@H]2C(=O)Nc2cnc3ccccc3c2)C1 (mixture of isomers) [Compound D109, trans-4-Aminomethyl-L-Prolyl-trans-4-((R)-2-Hydroxy-4-Phenylbutyrylamino)-L-Proline 3-Quinolylamide Trihydrochloride]	17	21	98	100	100	–	–	–	–	–
CNCC(=O)N1C[C@H](N)C[C@H]1C(=O)N1C[C@H](NC(=O)[C@H](O)CCc2ccccc2)C[C@H]1C(=O)Nc1cnc2ccccc2c1 (mixture of isomers) [Compound D111, 1-(N-Methylglycyl)-trans-4-Amino-L-Prolyl-trans-4-((R)-2-Hydroxy-4-Phenylbutyrylamino)-L-Proline 3-Quinolylamide Trihydrochloride]	20	20	19	27	100	–	–	–	–	–
N[C@H]1CCN[C@H](C(=O)N2C[C@H](NC(=O)[C@H](O)CCc3ccccc3)C[C@H]2C(=O)Nc2cnc3ccccc3c2)C1 (mixture of isomers) [Compound D112, trans-4-Amino-L-Pipecolinoyl-trans-4-((R)-2-Hydroxy-4-Phenylbutyrylamino)-L-Proline 3-Quinolylamide Trihydrochloride]	20	20	17	58	101	–	–	–	–	–
N[C@@H]1CCN[C@H](C(=O)N2C[C@H](NC(=O)[C@H](O)CCc3ccccc3)C[C@H]2C(=O)Nc2cnc3ccccc3c2)C1 (mixture of isomers) [Compound D113, cis-4-Amino-L-Pipecolinoyl-trans-4-((R)-2-Hydroxy-4-Phenylbutyrylamino)-L-Proline 3-Quinolylamide Trihydrochloride]	20	32	15	15	100	–	–	–	–	–
NCC(=O)N[C@H]1CCN[C@H](C(=O)N2C[C@H](NC(=O)[C@H](O)CCc3ccccc3)C[C@H]2C(=O)Nc2cnc3ccccc3c2)C1 (mixture of isomers) [Compound D114, trans-4-Glycylamino-L-Pipecolinoyl-trans-4-((R)-2-Hydroxy-4-Phenylbutyrylamino)-L-Proline 3-Quinolylamide Trihydrochloride]	20	22	90	100	100	–	–	–	–	–
CNCC(=O)N[C@H]1CN[C@H](C(=O)N2C[C@H](NC(=O)[C@H](O)CCc3ccccc3)C[C@H]2C(=O)Nc2cnc3ccccc3c2)C1.Cl.Cl.Cl (relative stereo) [Compound D106]	–	–	–	–	–	19	19	20	19	100
Cl.Cl.Cl.NC[C@H](O)C(=O)N[C@H]1CN[C@H](C(=O)N2C[C@H](NC(=O)[C@H](O)CCc3ccccc3)C[C@H]2C(=O)Nc2cnc3ccccc3c2)C1 (relative stereo) [Compound D108, trans-4-((S)-3-Amino-2-Hydroxypropionylamino)-L-Prolyl-trans-4-((R)-2-Hydroxy-4-Phenylbutyrylamino)-L-Proline 3-Quinolylamide Trihydrochlonde]	–	–	–	–	–	23	22	22	100	101
Cl.Cl.Cl.NCC(=O)N[C@@H]1CCN[C@H](C(=O)N2C[C@H](NC(=O)[C@H](O)CCc3ccccc3)C[C@H]2C(=O)Nc2cnc3ccccc3c2)C1 (relative stereo) [Compound D115, cis-4-Glycylamino-L-Pipecolinoyl-trans-4-((R)-2-Hydroxy-4-Phenylbutyrylamino)-L-Profine 3-Quinolylamide Trihydrochloride]	–	–	–	–	–	15	16	8	50	100
Cl.Cl.NCC(=O)N[C@H]1CN[C@H](C(=O)NCc2ccc(-c3ccccc3)cc2)C1 (relative stereo) [Compound D316, trans-4-Glycylmino-L-Proline 4-Phenylbenzylamide Dihydrochloride]	–	–	–	–	–	20	20	21	82	100
Cl.Cl.Cl.NCC(=O)N[C@H]1CN[C@H](C(=O)Nc2nc(-c3ccccc3)cs2)C1 (relative stereo) [Compound D326, trans 4GlycylaminoL-Proline 4-Phenylthiazol-2-ylamide Trihydrochloride]	–	–	–	–	–	18	19	17	13	74
Cl.Cl.Cl.NCC(=O)N[C@H]1CN[C@H](C(=O)Nc2cnc3ccc(Cc4ccccc4)cc3c2)C1 (relative stereo) [Compound D327, trans-4-Glycylamino-L-Proline 3-(6-Benzyl)quinolyl-amide Trihydrochloride]	–	–	–	–	–	20	19	99	100	100
Cl.Cl.NCC(=O)N[C@H]1CN[C@H](C(=O)N2CCN(c3ccc(Cl)cc3)CC2)C1 (relative stereo) [Compound D403, 1-(N-trans-4-Glycylamino-L-Prolyl)-4-(4-Chlorophenyl)piperazine Dihydrochloride]	–	–	–	–	–	25	22	22	4	61
NCCC1CN[C@H](C(=O)N2C[C@H](NC(=O)[C@H](O)CCc3ccccc3)C[C@H]2C(=O)Nc2cnc3ccccc3c2)C1 (stereo partly drawn) [Compound D110, 4-(2-Aminoethyl)-Prolyl-trans-4-((R)-2-Hydroxy-4-Phenylbutyrylamino)-L-Proline 3-Quinolylamide Trihydrochloride]	20	20	100	100	100	–	–	–	–	–
NCCC[C@@H](N)C(=O)N1C[C@H](NC(=O)CCCc2ccccc2)C[C@H]1C(=O)Nc1ccc2c(c1)CCC2 [Compound D121, D-Ornithyl-trans-4-(4-Phenylbutanoyl)amino-L-Proline 5-Indanylamide]	15	99	100	100	100	–	–	–	–	–
NCCC[C@H](N)C(=O)N1C[C@@H](NC(=O)CCCc2ccccc2)C[C@H]1C(=O)Nc1ccc2c(c1)CCC2 [Compound D122, L-Ornithyl-cis-4-(4-phenylbutanoyl)amino-L-proline 5-Indanylamide]	16	99	100	100	99	–	–	–	–	–
NCCC[C@@H](N)C(=O)N1C[C@@H](NC(=O)CCCc2ccccc2)C[C@H]1C(=O)Nc1ccc2c(c1)CCC2 [Compound D124, D-Ornithylcis-4-(4-Phenylbutanoyl)amino-L-Proline 5-Indanylamide Dihydrochloride]	19	100	100	100	100	–	–	–	–	–
NCC(O)C[C@H](N)C(=O)N1C[C@H](NC(=O)CCCc2ccccc2)C[C@H]1C(=O)Nc1ccc2c(c1)CCC2 (stereo partly drawn) [Compound D125, 4-Hydroxy-L-Ornithyl-trans-4-(4-Phenylbutanoyl)amino-L-Proline 5-Indanylamide Dihydrochloride]	15	100	100	100	100	–	–	–	–	–
